Test results taken from PMC6789782, “Safety Pharmacological Evaluation of the Coffee Component, Caffeoylquinic Acid, and Its Metabolites, Using Ex Vivo and In Vitro Profiling Assays” (Pharmaceuticals, 2019).
Where two headings read alike, the source gives them in different places.

Assays:
Assay in all cases: In vitro profiling, binding assay
Endothelin ETA = molecular target: T1, Endothelin ETA (Homo sapiens, UniProt P25101)
T1 sequence (P25101 21-427): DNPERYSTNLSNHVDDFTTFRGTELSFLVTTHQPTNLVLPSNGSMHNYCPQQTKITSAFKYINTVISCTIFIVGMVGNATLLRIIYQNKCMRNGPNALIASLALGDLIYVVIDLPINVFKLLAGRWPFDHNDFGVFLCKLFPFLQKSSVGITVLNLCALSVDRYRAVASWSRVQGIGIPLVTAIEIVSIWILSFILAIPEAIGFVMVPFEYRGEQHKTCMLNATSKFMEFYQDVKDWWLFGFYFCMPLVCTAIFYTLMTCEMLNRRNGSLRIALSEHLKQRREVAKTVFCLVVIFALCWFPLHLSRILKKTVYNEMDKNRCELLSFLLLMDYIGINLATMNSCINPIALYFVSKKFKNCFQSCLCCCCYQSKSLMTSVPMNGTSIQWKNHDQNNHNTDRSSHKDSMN
Description: (§1) Binding and functional assays of CGAs with the proteins known to be pharmacological targets related to the CVS, CNS, and GI functions were conducted. […] In the binding assay, we measured the radiation activity of the solution containing filtered proteins that bound to the tested compound or high-affinity ligand, while in the functional assays, we measured the reaction product. The ability of the test compound to interact with the tested targets was measured as the inhibition of ligand binding to the target or reaction product production (% inhibition).

Adenosine A2A = Adenosine A2A (Homo sapiens, UniProt P29274)
Adenosine A2A, sequence (P29274 whole entry): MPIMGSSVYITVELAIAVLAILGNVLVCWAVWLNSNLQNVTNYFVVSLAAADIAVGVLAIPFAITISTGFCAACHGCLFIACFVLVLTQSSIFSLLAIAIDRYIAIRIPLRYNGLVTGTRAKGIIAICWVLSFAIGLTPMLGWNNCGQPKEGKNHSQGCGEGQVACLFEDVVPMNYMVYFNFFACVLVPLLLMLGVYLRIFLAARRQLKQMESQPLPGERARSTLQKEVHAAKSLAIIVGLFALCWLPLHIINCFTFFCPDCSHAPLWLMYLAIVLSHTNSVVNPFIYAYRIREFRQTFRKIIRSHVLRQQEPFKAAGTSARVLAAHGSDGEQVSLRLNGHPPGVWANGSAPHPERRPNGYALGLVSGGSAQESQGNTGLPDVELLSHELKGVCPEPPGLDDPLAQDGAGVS
Description: as §1

5-HT2B = 5-HT2B (Homo sapiens, UniProt P41595)
5-HT2B, sequence (P41595 whole entry): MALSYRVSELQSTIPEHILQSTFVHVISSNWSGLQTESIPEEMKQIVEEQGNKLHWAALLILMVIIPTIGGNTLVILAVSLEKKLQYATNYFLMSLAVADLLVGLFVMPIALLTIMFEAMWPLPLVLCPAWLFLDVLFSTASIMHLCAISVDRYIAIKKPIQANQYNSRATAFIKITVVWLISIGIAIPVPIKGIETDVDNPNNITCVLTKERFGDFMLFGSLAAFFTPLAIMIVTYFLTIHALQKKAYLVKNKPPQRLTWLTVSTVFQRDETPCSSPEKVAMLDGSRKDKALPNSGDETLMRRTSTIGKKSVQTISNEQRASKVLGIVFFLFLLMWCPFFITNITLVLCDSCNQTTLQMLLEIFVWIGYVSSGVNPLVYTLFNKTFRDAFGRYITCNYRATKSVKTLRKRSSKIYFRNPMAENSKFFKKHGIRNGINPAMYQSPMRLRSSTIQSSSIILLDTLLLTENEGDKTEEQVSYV
Description: as §1

Muscarinic M2 = molecular target: T2, Muscarinic M2 (Homo sapiens, UniProt P08172)
T2 sequence (P08172 1-466): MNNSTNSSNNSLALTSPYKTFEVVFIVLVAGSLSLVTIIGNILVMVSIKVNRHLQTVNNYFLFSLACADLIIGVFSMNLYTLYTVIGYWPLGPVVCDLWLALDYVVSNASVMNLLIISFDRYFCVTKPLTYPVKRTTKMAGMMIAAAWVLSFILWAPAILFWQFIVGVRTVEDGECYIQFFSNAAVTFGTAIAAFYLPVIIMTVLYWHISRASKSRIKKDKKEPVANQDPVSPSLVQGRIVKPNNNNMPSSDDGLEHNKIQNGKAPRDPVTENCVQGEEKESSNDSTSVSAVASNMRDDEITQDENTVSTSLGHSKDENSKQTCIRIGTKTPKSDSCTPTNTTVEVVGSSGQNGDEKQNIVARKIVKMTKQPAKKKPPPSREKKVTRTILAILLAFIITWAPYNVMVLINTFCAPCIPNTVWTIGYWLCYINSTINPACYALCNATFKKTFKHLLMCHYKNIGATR
Description: as §1

Opiate μ = Opiate μ (Homo sapiens, UniProt P35372)
Opiate μ, sequence (P35372 whole entry): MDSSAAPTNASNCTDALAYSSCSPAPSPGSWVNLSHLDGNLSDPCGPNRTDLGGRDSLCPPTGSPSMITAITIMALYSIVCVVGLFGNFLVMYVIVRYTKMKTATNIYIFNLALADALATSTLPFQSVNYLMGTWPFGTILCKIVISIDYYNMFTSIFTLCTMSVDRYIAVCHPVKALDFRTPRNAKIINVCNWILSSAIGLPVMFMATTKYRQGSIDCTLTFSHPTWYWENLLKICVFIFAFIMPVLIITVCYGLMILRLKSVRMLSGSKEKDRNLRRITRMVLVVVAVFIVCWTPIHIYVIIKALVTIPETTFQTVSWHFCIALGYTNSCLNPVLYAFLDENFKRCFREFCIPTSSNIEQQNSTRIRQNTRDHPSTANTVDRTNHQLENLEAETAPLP
Description: as §1

Dopamine D2L = Dopamine D2L (Homo sapiens, UniProt P14416)
Dopamine D2L, sequence (P14416 whole entry): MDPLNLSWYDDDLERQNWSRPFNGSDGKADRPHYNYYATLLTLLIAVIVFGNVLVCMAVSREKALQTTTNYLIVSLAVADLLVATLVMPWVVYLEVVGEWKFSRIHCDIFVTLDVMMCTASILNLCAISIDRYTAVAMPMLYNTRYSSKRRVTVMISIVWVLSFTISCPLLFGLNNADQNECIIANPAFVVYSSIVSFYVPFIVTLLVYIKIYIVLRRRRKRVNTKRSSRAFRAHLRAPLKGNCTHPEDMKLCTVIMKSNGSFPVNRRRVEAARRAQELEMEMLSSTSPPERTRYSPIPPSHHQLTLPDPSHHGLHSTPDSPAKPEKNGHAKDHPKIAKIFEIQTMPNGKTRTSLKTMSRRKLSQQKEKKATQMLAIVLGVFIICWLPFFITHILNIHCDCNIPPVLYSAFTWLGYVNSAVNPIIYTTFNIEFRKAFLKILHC
Description: as §1

Opiate δ1 = Opiate δ1 (Homo sapiens, UniProt P41143)
Opiate δ1, sequence (P41143 whole entry): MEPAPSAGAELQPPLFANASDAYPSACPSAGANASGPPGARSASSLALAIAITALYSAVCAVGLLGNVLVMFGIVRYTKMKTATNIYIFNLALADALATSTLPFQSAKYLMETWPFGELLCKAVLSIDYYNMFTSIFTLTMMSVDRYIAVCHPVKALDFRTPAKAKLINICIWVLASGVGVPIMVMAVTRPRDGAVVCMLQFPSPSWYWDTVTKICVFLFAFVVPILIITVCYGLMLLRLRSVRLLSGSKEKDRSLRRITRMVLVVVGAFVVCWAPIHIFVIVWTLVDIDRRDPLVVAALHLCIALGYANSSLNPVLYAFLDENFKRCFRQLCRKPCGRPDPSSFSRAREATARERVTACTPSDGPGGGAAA
Description: as §1

Histamine H2 = Histamine H2 (Homo sapiens, UniProt P25021)
Histamine H2, sequence (P25021 whole entry): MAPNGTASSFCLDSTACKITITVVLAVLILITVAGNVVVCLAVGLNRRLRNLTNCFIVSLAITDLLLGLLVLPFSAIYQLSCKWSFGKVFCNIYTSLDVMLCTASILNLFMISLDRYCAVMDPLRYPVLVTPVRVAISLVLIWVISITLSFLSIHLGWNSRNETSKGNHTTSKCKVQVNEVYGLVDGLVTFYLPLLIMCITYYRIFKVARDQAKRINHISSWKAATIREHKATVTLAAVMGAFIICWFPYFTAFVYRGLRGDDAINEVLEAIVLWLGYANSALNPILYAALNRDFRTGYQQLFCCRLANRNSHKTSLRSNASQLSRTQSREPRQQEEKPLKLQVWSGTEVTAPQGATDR
Description: as §1

Opiate κ = Opiate κ (Homo sapiens, UniProt P41145)
Opiate κ, sequence (P41145 whole entry): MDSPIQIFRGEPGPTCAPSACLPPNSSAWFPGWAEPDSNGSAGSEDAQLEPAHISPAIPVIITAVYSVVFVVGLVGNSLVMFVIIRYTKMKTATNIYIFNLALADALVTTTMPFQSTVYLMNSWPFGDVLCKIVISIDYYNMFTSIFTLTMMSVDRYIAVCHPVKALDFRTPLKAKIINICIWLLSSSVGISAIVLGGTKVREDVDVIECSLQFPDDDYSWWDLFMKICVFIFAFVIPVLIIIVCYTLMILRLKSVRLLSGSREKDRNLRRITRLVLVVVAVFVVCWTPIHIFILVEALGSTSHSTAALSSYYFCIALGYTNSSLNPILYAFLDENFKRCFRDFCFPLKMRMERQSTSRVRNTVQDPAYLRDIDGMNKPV
Description: as §1

Muscarinic M1 = molecular target: T3, Muscarinic M1 (Homo sapiens, UniProt P11229)
T3 sequence (P11229 1-460): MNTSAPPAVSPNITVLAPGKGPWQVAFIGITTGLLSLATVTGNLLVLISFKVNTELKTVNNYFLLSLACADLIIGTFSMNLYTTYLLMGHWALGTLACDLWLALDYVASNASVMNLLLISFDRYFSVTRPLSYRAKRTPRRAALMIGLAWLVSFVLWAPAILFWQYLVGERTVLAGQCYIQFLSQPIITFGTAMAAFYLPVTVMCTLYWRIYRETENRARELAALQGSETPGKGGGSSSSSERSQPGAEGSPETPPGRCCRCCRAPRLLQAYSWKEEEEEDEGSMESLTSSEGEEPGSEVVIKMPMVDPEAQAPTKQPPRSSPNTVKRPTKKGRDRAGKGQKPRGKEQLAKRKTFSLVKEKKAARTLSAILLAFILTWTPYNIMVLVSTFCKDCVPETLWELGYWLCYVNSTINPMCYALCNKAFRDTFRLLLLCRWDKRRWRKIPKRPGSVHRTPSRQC
Description: as §1

5-HT2A = 5-HT2A (Homo sapiens, UniProt P28223)
5-HT2A, sequence (P28223 whole entry): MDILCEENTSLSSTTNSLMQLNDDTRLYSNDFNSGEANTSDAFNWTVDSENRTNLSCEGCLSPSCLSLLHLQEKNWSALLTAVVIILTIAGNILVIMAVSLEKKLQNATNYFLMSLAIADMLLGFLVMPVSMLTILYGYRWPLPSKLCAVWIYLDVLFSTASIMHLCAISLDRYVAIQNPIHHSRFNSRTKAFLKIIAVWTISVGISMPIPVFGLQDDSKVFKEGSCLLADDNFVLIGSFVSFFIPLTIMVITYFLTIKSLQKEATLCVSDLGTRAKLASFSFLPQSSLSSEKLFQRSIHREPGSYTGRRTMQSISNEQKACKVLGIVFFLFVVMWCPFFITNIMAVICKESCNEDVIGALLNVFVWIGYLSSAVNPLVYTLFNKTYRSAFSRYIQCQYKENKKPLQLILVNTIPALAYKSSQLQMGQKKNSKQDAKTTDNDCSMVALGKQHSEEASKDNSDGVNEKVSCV
Description: as §1

[1] = molecular target: Transporter, Norepinephrine (NET) (Homo sapiens, UniProt P23975)
Transporter, Norepinephrine (NET), sequence (P23975 whole entry): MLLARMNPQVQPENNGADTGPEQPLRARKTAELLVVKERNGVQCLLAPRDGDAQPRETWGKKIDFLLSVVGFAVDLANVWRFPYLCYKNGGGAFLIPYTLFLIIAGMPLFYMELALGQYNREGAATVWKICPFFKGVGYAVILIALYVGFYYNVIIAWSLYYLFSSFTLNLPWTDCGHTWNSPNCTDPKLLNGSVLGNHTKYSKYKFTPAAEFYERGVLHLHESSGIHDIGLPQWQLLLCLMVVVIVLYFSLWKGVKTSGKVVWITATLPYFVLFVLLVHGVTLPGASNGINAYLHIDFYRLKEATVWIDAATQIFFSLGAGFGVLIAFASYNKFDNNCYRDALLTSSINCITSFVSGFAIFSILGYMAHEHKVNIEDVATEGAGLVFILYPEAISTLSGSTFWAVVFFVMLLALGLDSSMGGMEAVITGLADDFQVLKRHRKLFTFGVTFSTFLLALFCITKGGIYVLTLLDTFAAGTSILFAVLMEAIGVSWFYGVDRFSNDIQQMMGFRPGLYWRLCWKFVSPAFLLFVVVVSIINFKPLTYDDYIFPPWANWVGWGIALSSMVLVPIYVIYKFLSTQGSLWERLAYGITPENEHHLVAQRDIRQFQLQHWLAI
Description: as §1

5-HT3 = molecular target: T4, 5-HT3 (Homo sapiens, UniProt P46098)
T4 sequence (P46098 24-478): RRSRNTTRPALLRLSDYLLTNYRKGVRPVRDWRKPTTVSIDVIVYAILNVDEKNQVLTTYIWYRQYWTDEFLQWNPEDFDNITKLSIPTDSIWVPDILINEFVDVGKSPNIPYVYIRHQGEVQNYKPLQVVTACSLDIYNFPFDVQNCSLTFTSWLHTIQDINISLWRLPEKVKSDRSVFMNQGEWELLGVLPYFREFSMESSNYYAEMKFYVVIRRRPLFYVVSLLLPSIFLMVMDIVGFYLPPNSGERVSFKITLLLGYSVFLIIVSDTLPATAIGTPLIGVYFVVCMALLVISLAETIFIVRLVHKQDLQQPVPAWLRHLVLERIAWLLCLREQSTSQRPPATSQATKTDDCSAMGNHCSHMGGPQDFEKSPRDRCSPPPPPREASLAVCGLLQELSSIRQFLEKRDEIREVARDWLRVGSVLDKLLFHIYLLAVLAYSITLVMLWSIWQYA
Description: as §1

[2] = 30 µM, Endothelin ETA, read-out: % Inhibition
[3] = 30 µM, Adenosine A2A, read-out: % Inhibition
[4] = 30 µM, 5-HT2B, read-out: % Inhibition
[5] = 30 µM, Muscarinic M2, read-out: % Inhibition
[6] = 30 µM, Opiate μ, read-out: % Inhibition
[7] = 30 µM, Dopamine D2L, read-out: % Inhibition
[8] = 30 µM, Opiate δ1, read-out: % Inhibition
[9] = 30 µM, Histamine H2, read-out: % Inhibition
[10] = 30 µM, Opiate κ, read-out: % Inhibition
[11] = 30 µM, Transporter, Norepinephrine (NET), read-out: % Inhibition
[12] = 30 µM, 5-HT3, read-out: % Inhibition

Row | Structure (SMILES) | inhibition at 30 µM (Endothelin ETA; [2]) | inhibition at 30 µM (Adenosine A2A; [3]) | inhibition at 30 µM (5-HT2B; [4]) | inhibition at 30 µM (Muscarinic M2; [5]) | inhibition at 30 µM (Opiate μ; [6]) | inhibition at 30 µM (Dopamine D2L; [7]) | inhibition at 30 µM (Opiate δ1; [8]) | inhibition at 30 µM (Histamine H2; [9]) | inhibition at 30 µM (Opiate κ; [10]) | inhibition at 30 µM (Muscarinic M1) | inhibition at 30 µM (5-HT2A) | inhibition at 30 µM [1, 11] | inhibition at 30 µM (5-HT3; [12]) | inhibition at 30 µM (Dopamine D2L) | further results
1 | O=C(/C=C/c1ccc(O)c(O)c1)O[C@H]1C[C@@](O)(C(=O)O)C[C@H](O)[C@@H]1O [5-CQA, 5-O-caffeoylquinic acid] | 3% | -7% | -16% | -1% | 8% | 7% | 5% | 0% | -3% | 0% | 3% | -3% | -9% | – | –
2 | COc1cc(/C=C/C(=O)O)ccc1O [FA, ferulic acid] | – | – | – | – | – | – | – | – | – | – | – | – | – | 9% | inhibition at 30 µM (Endothelin ETA): 1%; inhibition at 30 µM (Adenosine A2A): -14%; inhibition at 30 µM (5-HT2B): 5%; inhibition at 30 µM (Muscarinic M2): 17%; inhibition at 30 µM (Opiate μ): 4%; inhibition at 30 µM (Opiate δ1): 16%; inhibition at 30 µM (Histamine H2): -5%; inhibition at 30 µM (Opiate κ): 3%; inhibition at 30 µM [1]: 2%; inhibition at 30 µM (5-HT3): -13%
3 | O=C(O)/C=C/c1ccc(O)c(O)c1 [CA, caffeic acid] | – | – | – | – | – | – | – | – | – | 5% | 7% | – | – | 16% | % Inhibition (Endothelin ETA; 30 µM, Endothelin ETA): 4%; % Inhibition (Adenosine A2A; 30 µM, Adenosine A2A): 4%; % Inhibition (5-HT2B; 30 µM, 5-HT2B): 1%; % Inhibition (Muscarinic M2; 30 µM, Muscarinic M2): 23%; % Inhibition (Opiate μ; 30 µM, Opiate μ): −6%; % Inhibition (Opiate δ1; 30 µM, Opiate δ1): 11%; % Inhibition (Histamine H2; 30 µM, Histamine H2): −6%; % Inhibition (Opiate κ; 30 µM, Opiate κ): 3%; % Inhibition ([1]; 30 µM, Transporter, Norepinephrine (NET)): 0%; % Inhibition (5-HT3; 30 µM, 5-HT3): −5%
4 | COc1cc(/C=C/C(=O)O[C@H]2C[C@@](O)(C(=O)O)C[C@H](O)[C@@H]2O)ccc1O [5-FQA, 5-O-feruloylquinic acid] | 1% | 2% | -5% | 7% | 5% | -8% | 2% | -5% | -7% | – | 8% | -1% | -3% | – | inhibition at 30 µM (Muscarinic M1; 30 µM, Muscarinic M1, read-out: % Inhibition): -5%
